Tests used:
[1] = biological target: Human indoleamine 2,3-dioxygenase1 (hIDO1) (Homo sapiens (Human), UniProt P14902); test: In-vitro IDO1 enzyme assay (conversion of L-tryptophan to KYN); type: biochemical; details: read-out: IC50 (IDO1) Enz
Excerpt: Human indoleamine 2,3-dioxygenasel (hIDO1) catalyzes the oxidative cleavage of the pyrrole ring of the indole nucleus of tryptophan to yield N-formylkynurenine which can be converted to kynurenine (KYN) by deformylation. hIDO1 with an N-terminal His tag, expressed and purified from E. coli cells was procured from either Enzo LifeScienccs, NY, USA). Unless otherwise stated, all materials were procured from Sigma Aldrich, Mo., USA.
The assay monitoring the conversion of L-tryptophan to KYN was carried out as follows. hIDO1 (10 nM) was incubated with tryptophan (30 μM) in the presence of ascorbic acid (20 mM), methylene blue (10 μM) and catalase (100 μg/mL) in potassium phosphate buffer (50 mM; pH 6.5) at 37C for 30 min. The reaction was terminated with 30% trichloroacetic acid (TCA) and further incubated at 65C for 15 min to fully convert N-formylkynurenine to KYN. The reaction mixture was then centrifuged to remove sediments and the KYN in the supernatant was estimated by UV-visible absorption spectroscopy at 360 nm using a Waters HPLC system fitted with a C-18 column or by LC/MS/MS. See, Sono, 1980, J. Biol. Chem., 255:1339-1345, which is herein incorporated by reference.
Percent inhibition at each concentration of test compounds was determined by estimating the decrease in KYN with reference to the reaction control with 1% DMSO vehicle. Data were analyzed using nonlinear regression to generate IC50 values using Graph Pad Prism® 5.

[2] = biological target: Human TDO (hTDO)-transfected CHO-K1 cells (Homo sapiens (Human), UniProt P48775); test: CHO-K1 cell based TDO assay; details: hTDO cellular assay
Human TDO (hTDO)-transfected CHO-K1 cells, sequence (P48775 whole entry): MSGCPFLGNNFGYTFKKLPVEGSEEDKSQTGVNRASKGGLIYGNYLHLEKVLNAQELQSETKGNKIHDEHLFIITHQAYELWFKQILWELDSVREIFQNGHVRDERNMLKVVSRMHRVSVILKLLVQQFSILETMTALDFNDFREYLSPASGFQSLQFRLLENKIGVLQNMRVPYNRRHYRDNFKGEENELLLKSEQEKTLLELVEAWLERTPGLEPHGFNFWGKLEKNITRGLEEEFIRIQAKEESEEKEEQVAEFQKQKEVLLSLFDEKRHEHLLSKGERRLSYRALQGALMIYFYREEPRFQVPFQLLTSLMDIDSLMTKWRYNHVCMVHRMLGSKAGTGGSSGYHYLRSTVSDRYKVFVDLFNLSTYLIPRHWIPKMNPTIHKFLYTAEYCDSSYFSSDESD
Protocol: Human TDO (hTDO)-transfected CHO-K1 cells were used to identify test compounds that inhibit TDO activity and reduce Kynurenine production. CHO-K1 cells (ATCC) were cultured in DMEM supplemented with sodium bicarbonate (2.1 g/L), HEPES (4.1 g/L), L-glutamine (2 mM), non-essential amino acid (84 mg/L) and fetal bovine serum (10%) and maintained at 95% humidity and 5% CO2 in a 37° C. incubator. The TDO gene (TDO2) (Accession number NM_005651.1) was purchased from Origene (USA) and stably expressed in CHO-Kl cells using the expression vector pcDNA4/Myc-HisB Hygro (Life Technologies, USA). TDO-expressing clones were identified based on the kynurenine production by the cells. Expanded clones were used for assay as described below. Unless otherwise stated, all materials were procured from Sigma.
hTDO transfected CHO-K1 cells (0.05 million/well) were seeded in a 96-well plate and maintained overnight in DMEM containing 10% FBS (200 μL) at 95% humidity and 5% CO2 in a 37° C. incubator. The following day, cells were washed and incubated with test compounds (typically 31 μM to 10 nM, final volume 150 μL) in Hanks Balanced Salt Solution (HBSS) containing 80 μM L-tryptophan for 2 hours. Supernatant (150 μL) from the cells was treated with 30% TCA ([…]) to precipitate proteins. Supernatants were further incubated at 65° C. for 15 min to convert N-formylkynurenine to kynurenine. KYN in the supernatant was measured by LC/MS/MS using an API4000 mass spectrometer (Applied Biosystems) coupled to a Shimadzu Prominence LC system fitted with a C18 column.
Percent inhibition of the test compounds was determined by measuring the decrease in KYN as compared to the reaction control (DMSO vehicle). IC50 values were calculated using Graph Pad Prism® 5 as described above.

Human indoleamine 2,3-dioxygenase1 (hIDO1), sequence (P14902 whole entry): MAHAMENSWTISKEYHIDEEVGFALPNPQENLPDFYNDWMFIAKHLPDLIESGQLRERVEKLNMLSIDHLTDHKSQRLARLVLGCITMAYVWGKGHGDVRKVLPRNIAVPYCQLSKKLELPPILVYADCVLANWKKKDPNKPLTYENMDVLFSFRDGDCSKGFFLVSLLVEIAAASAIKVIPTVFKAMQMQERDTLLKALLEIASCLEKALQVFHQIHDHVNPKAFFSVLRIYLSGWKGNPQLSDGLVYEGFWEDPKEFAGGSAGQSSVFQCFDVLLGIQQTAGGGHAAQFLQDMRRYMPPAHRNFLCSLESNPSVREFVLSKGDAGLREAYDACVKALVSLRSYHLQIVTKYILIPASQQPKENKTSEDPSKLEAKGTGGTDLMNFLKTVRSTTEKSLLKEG

SMILES	IC50 [1] [nM]	IC50 [2] [nM]
N#Cc1cccc(Nc2c(N)oc3cnccc23)c1F [Compound 28, 3-((2-Aminofuro[2,3-c]pyridin-3-yl)amino)-2-fluorobenzonitrile]	> 1000	> 2000
CCOC(=O)Nc1oc2c(C#Cc3ccc(C(N)=O)cc3)nccc2c1N(C(=O)OCC)c1ccc(F)c(Cl)c1 [Compound 160, Ethyl (7-((4-carbamoylphenyl)ethynyl)-2-((ethoxycarbonyl)amino)furo[2,3-c]pyridin-3-yl)(3-chloro-4-fluorophenyl)carbamate]	> 1000	> 2000
Nc1oc2cncc(Cl)c2c1Nc1ccc(F)c(Cl)c1 [Compound 57, 4-Chloro-N^3-(3-chloro-4-fluoro-phenyl)-furo[2,3-c]pyridine-2,3-diamine]	> 1000	500 to 2000
Nc1oc2cnccc2c1Nc1cccc2c1CCCC2 [Compound 63, N^3-(5,6,7,8-Tetrahydronaphthalen-1-yl)furo[2,3-c]pyridine-2,3-diamine]	> 1000	> 2000
CC(C)Oc1cccc(Nc2c(N)oc3cnccc23)c1 [Compound 37, N^3-(3-Isopropoxyphenyl)furo[2,3-c]pyridine-2,3-diamine]	> 1000	> 2000
Nc1oc2cnccc2c1Nc1cncc(Cl)c1 [Compound 52, N^3-(5-Chloropyridin-3-yl)furo[2,3-c]pyridine-2,3-diamine]	> 1000	500 to 2000
N#Cc1ccc(Nc2c(N)oc3cnccc23)cc1 [Compound 39, 4-((2-Aminofuro[2,3-c]pyridin-3-yl)amino)benzonitrile]	> 1000	500 to 2000
Nc1oc2cnccc2c1Nc1ccc(Cl)c(Cl)c1Cl [Compound 31, N^3-(2,3,4-Trichlorophenyl)furo[2,3-c]pyridine-2,3-diamine]	> 1000	> 2000
Nc1oc2c(-c3ccc(F)c(F)c3F)nccc2c1Nc1ccc(F)c(Cl)c1 [Compound 171, N^3-(3-Chloro-4-fluorophenyl)-7-(2,3,4-trifluorophenyl)furo[2,3-c]pyridine-2,3-diamine]	< 200	
CCOC(=O)Nc1oc2c(C#N)nccc2c1N(C(=O)OCC)c1ccc(F)c(C(F)(F)F)c1 [Compound 194, Ethyl (7-cyano-2-((ethoxycarbonyl)amino)furo[2,3-c]pyridin-3-yl)(4-fluoro-3-(trifluoromethyl)phenyl)carbamate]	> 1000	> 2000
N#Cc1nccc2c(Nc3ccc(F)c(Cl)c3)c(NC(=O)OCc3ccccc3)oc12 [Compound 155, Benzyl (3-((3-chloro-4-fluorophenyl)amino)-7-cyanofuro[2,3-c]pyridin-2-yl)carbamate]	> 1000	500 to 2000
Cc1cc(-c2nccc3c(Nc4ccccc4N4CCCCC4)c(N)oc23)ccn1 [Compound 242, 7-(2-Methylpyridin-4-yl)-N^3-(2-(piperidin-1-yl)phenyl)furo[2,3-c]pyridine-2,3-diamine]	> 1000	> 2000
Nc1oc2cnccc2c1Nc1cccc(C2CCCCC2)c1 [Compound 88, N^3-(3-Cyclohexylphenyl)furo[2,3-c]pyridine-2,3-diamine]	> 1000	500 to 2000
CCOC(=O)Nc1sc2ccccc2c1Nc1ccc(F)c(Cl)c1 [Compound 209, Ethyl (3-((3-chloro-4-fluorophenyl)amino)benzo[b]thiophen-2-yl)carbamate]	> 1000	> 2000
Cc1ccc(Nc2c(N)oc3cnccc23)c(C)c1 [Compound 54, N^3-(2,4-Dimethylphenyl)furo[2,3-c]pyridine-2,3-diamine]	> 1000	500 to 2000
Nc1sc2c(-c3cncc4ccccc34)cccc2c1Nc1ccc(F)c(Cl)c1 [Compound 281, N^3-(3-Chloro-4-fluorophenyl)-7-(isoquinolin-4-yl)benzo[b]thiophene-2,3-diamine]		> 2000
Nc1oc2cnccc2c1Nc1ccc(OC(F)(F)F)cc1 [Compound 50, N^3-(4-(Trifluoromethoxy)phenyl)furo[2,3-c]pyridine-2,3-diamine]	> 1000	500 to 2000
O=C(Nc1oc2cnccc2c1N(C(=O)OCc1ccccc1)c1ccc(F)c(Cl)c1)OCc1ccccc1 [Compound 140, Benzyl (2-(((benzyloxy)carbonyl)amino)furo[2,3-c]pyridin-3-yl)(3-chloro-4-fluorophenyl)carbamate]	> 1000	
Nc1sc2cnccc2c1Nc1ccc(F)c(Cl)c1 [Compound 121, N^3-(3-chloro-4-fluorophenyl)thieno[2,3-c]pyridine-2,3-diamine]	> 1000	> 2000
CCOC(=O)Nc1oc2c(-c3cc(C)nc(C)c3)nccc2c1N(C(=O)OCC)c1ccc(F)c(Cl)c1 [Compound 165, Ethyl (3-chloro-4-fluorophenyl)(7-(2,6-dimethylpyridin-4-yl)-2-((ethoxycarbonyl)amino)furo[2,3-c]pyridin-3-yl)carbamate]	> 1000	> 2000
C#Cc1ccc(Nc2c(N)oc3cnccc23)cc1 [Compound 36, N^3-(4-Ethynylphenyl)furo[2,3-c]pyridine-2,3-diamine]	> 1000	500 to 2000
COC(=O)Nc1oc2cnccc2c1N(C(=O)OC)c1ccc(F)c(Cl)c1 [Compound 144, Methyl (3-chloro-4-fluorophenyl)(2-((methoxycarbonyl)amino)furo[2,3-c]pyridin-3-yl)carbamate]	> 1000	> 2000
CCOC(=O)Nc1oc2c(C#N)nccc2c1N(C(=O)OCC)c1ccc(F)c(Cl)c1 [Compound 145, Ethyl (3-chloro-4-fluorophenyl)(7-cyano-2-((ethoxycarbonyl)amino)furo[2,3-c]pyridin-3-yl)carbamate]	> 1000	> 2000
Nc1oc2cnccc2c1Nc1ccc(F)cc1Cl [Compound 30, N^3-(2-Chloro-4-fluorophenyl)furo[2,3-c]pyridine-2,3-diamine]	> 1000	500 to 2000
CCOC(=O)Nc1oc2c(-c3ccccc3)nccc2c1Nc1ccc(F)c(Cl)c1 [Compound 162, Ethyl (3-((3-chloro-4-fluorophenyl)amino)-7-phenylfuro[2,3-c]pyridin-2-yl)carbamate]	> 1000	> 2000
Nc1oc2cccnc2c1Nc1ccc(F)c(Cl)c1 [Compound 1, N^3-(3-chloro-4-fluoro-phenyl)-furo[3,2-b]pyridine-2,3-diamine]	< 200	
CCOC(=O)Nc1oc2c(Br)nccc2c1N(C(=O)OCC)c1ccc(F)c(Cl)c1 [Compound 161, Ethyl (7-bromo-2-((ethoxycarbonyl)amino)furo[2,3-c]pyridin-3-yl)(3-chloro-4-fluorophenyl)carbamate]	> 1000	> 2000
CCOC(=O)Nc1oc2c(-c3cc(C)nc(C)c3)nccc2c1Nc1ccc(F)c(Cl)c1 [Compound 163, Ethyl (3-((3-chloro-4-fluorophenyl)amino)-7-(2,6-dimethylpyridin-4-yl)furo[2,3-c]pyridin-2-yl)carbamate]	> 1000	> 2000
Nc1sc2ccc(-c3ccccc3)cc2c1Nc1ccc(F)c(Cl)c1 [Compound 134, N^3-(3-chloro-4-fluorophenyl)-5-phenylbenzo[b]thiophene-2,3-diamine]	> 1000	
COc1cc(Nc2c(N)oc3cnccc23)cc(OC)c1 [Compound 38, N^3-(3,5-Dimethoxyphenyl)furo[2,3-c]pyridine-2,3-diamine]	> 1000	
